Glass transition temperature data for 23 molecules are collected here from the PolyMetriX glass transition set.

Structures are written as SMILES.

`*/C=C/c1cc(CCCCCCCCCCCCCCCC)c(/C=C/c2nc(*)c(C#N)c(/C=C/c3ccc(N(c4ccccc4)c4ccccc4)cc3)c2C#N)cc1CCCCCCCCCCCCCCCC` (repeat unit): the glass transition temperature was 165.00 °C.

`*/C=C/c1ccc(*)c(-c2ccc(OCC(CC)CCCC)c3ccccc23)c1` (repeat unit): the glass transition temperature turned out to be 135.00 °C.

`*/C=C/c1ccc(*)c(OCc2cc(OCc3cc(OCCC(C)CCCC(C)C)cc(OCCC(C)CCCC(C)C)c3)cc(OCc3cc(OCC(CC)CCCC)cc(OCC(CC)CCCC)c3)c2)c1` (repeat unit) had a glass transition temperature of 223.00 °C.

`*/C=C/c1ccc2c(c1)C(CC(CC)CCCC)(CC(CC)CCCC)c1cc(*)ccc1-2` (repeat unit) came in with a glass transition temperature of 165.00 °C.

`*/C=C/c1ccc2c(c1)C(CCCCCC)(CCCCCC)c1cc(/C=C/c3nc(*)c(C#N)c(/C=C/c4ccc(N(c5ccccc5)c5ccccc5)cc4)c3C#N)ccc1-2` (repeat unit) returned a glass transition temperature of 178.00 °C.

The molecule `*/C=C/c1ccc2c(c1)Sc1cc(*)ccc1N2c1ccc(OCCCCCCCCCCCC)cc1` (repeat unit) had a glass transition temperature of 129.00 °C.

The molecule `*/C=C/c1ccc2c3ccc(*)cc3n(-c3ccc(OCCCCCCCCCC)c(OCCCCCCCCCC)c3)c2c1` (repeat unit) gave a glass transition temperature of 95.00 °C.

For `*/C=C/c1cccc(/C=C/[Si](C)(C)c2cccc([Si](*)(C)C)c2)c1` (repeat unit), the glass transition temperature was 28.70 °C.

In turn, `*/C=C/c1cccc(/C=C/[Si](C)(CCC(F)(F)F)c2ccc([Si](*)(C)CCC(F)(F)F)cc2)c1` (repeat unit) came in with a glass transition temperature of 34.50 °C.

The molecule `*/C=C/c1cccc(/C=C/[Si](C)(CCC(F)(F)F)c2cccc([Si](*)(C)CCC(F)(F)F)c2)c1` (repeat unit) yielded a glass transition temperature of 9.50 °C.

As to `*/C=N/c1ccc(C(=O)OCCCCOCCCCOCCCCOC(=O)c2ccc(/N=C/c3ccc4c(c3)c3cc(*)ccc3n4CC(CC)CCCC)cc2)cc1` (repeat unit), the glass transition temperature is 5.20 °C.

`*C#Cc1cccc(C#C[SiH2]*)c1` (repeat unit) registered a glass transition temperature of 72.00 °C.

`*C(=O)Nc1cccc(NC(=O)/C=C/c2cccc(N3C(=O)c4ccc(*)cc4C3=O)c2)c1` (repeat unit): the glass transition temperature was 257.50 °C.

Turning to `*CC(=O)C(*)C` (repeat unit), the glass transition temperature is 23.00 °C.

Molecule `*CC(=O)C(*)c1ccc(C(C)(C)C)cc1` (repeat unit) gave a glass transition temperature of 158.00 °C.

Turning to `*CCCC1(C)CCN(C(=O)CC(C)C(=O)N2CCC(*)(C)CC2)CC1` (repeat unit), the glass transition temperature stood at 72.00 °C.

Molecule `*CCCCCCCCOc1c(OC)cc(/C=C/c2ccc(/C=C/c3ccc(/C=C/c4cc(OC)c(O*)c(OC)c4)cc3)cc2)cc1OC` (repeat unit) had a glass transition temperature of 78.70 °C.

`*CCCCCCCCOc1ccc(/C=C/c2cc(OCCCCCCCC)c(/C=C/c3ccc(O*)cc3)cc2OCCCCCCCC)cc1` (repeat unit) gave a glass transition temperature of 130.00 °C.

`*CCCCCNC(=O)CC(=O)N*` (repeat unit) displayed a glass transition temperature of 65.00 °C.

Molecule `*CCOCCOCCOc1ccc(/C=C/c2cc(OC)c(/C=C/c3ccc(O*)c4ccccc34)cc2OC)c2ccccc12` (repeat unit) came in with a glass transition temperature of 79.50 °C.

Take `*Oc1ccc(S(=O)(=O)c2ccc(Oc3ccc(/C=C4\CC/C(=C\c5ccc(*)cc5)C4=O)cc3)cc2)cc1` (repeat unit): the glass transition temperature is 235.00 °C.

`*c1cc(C)c(/N=C/c2ccc(OCc3ccccc3COc3ccc(/C=N/c4cc(C)c(N5C(=O)c6ccc7c8ccc9c%10c(ccc(c%11ccc(c6c7%11)C5=O)c%108)C(=O)N(*)C9=O)cc4C)cc3OC)c(OC)c2)cc1C` (repeat unit) gave a glass transition temperature of 143.00 °C.

In turn, `*c1ccc(Oc2ccc(/C=C/c3ccc(Oc4ccc(-c5nnc(*)o5)cc4)c4ccccc34)cc2)cc1` (repeat unit) registered a glass transition temperature of 213.00 °C.
